For one assay, the system named is HCT-116 cells. As to the kind of experiment: MTS cell proliferation/cytotoxicity assay, HCT-116. It counts as cell-based. The following applies: Homo sapiens. The method, then: (§1) The antiproliferative effects of the present compounds may be tested using a cell proliferation and/or cytotoxicity assay, following protocols described below.
(§2) MTS assays. Antiproliferative effects of anticancer drugs are tested by the CellTiter 96 AQueous assay (Promega, Wis.), which is a colorimetric assay for determining the number of viable cells. (See, e.g., Wang, L., et al., Methods Cell Sci (1996) 18:249-255).
(§3) Generally, cells (2,000 to 5,000 cells/well) are seeded on 96 well flat bottom plates (Corning, N.Y.) in 100 μl of culture medium without any anticancer drug on day 0, and the culture medium is exchanged for that contained anticancer drugs at various concentrations on day 1. After incubation for 3 days under normal growth conditions (on day 4), the monolayers are washed once in PBS, and the medium is switched to 100 μl of PBS in each of the 96 well plate. After mixing MTS and PMS at the ratio of 20:1, 20 μl of MTS/PMS solution is added to each of the 96 well plate and incubated for 4 hours in a humidified atmosphere of 5% CO2 at 37° C. The absorbance was read at 490 nm using FLUOstar Galaxy 96 well plate reader (BMG Labtechnologies, Germany).

Another assay relates to HeLa cells. As to the kind of experiment: MTS cell proliferation/cytotoxicity assay, Hela. In kind it is cell-based. The following applies: Homo sapiens. As to the method:
as §1
Cell culture. Human cervical epithelial cells (HeLa cells) are obtained from American Type Culture Collection (Manassas, Va.). Cells are grown in Eagle's minimum essential medium (MEM, Hyclone, Utah) supplemented with 2 mM Glutamine, 0.1 mM nonessential amino acid, 1 mM Na Pyruvate, 1.5 g/L NaHCO3, 50 mg/L gentamicin, and 10% fetal bovine serum (Hyclone, USA) in a humidified atmosphere of 5% CO2 at 37° C.
as §2, §3

In assay [1] the target is c-Myc template DNA (quadruplex). As to the kind of experiment: Quadruplex binding assay (STOP assay, Taq polymerase arrest, capillary electrophoresis). In kind it is biochemical. The following applies: concentration at which 50% of the DNA was arrested. The method, then: Generally, a 5′-fluorescent-labeled (FAM) primer (P45, 15 nM) was mixed with template DNA (15 nM) in a Tris-HCL buffer (15 mM Tris, pH 7.5) containing 10 mM MgCl2, 0.1 mM EDTA and 0.1 mM mixed deoxynucleotide triphosphates (dNTP's). In one example, the FAM-P45 primer (5′-6FAM-[…] CAATT-3′) (SEQ ID NO. 17) and the c-Myc template DNA (5′-[…] […] […]-3′) (SEQ ID NO. 18) were synthesized and HPLC purified by Applied Biosystems. The mixture was denatured at 95° C. for 5 minutes and, after cooling down to room temperature, was incubated at 37° C. for 15 minutes.
After cooling down to room temperature, 1 mM […] and the test compound (various concentrations) were added and the mixture incubated for 15 minutes at room temperature. The primer extension was performed by adding 10 mM KCl and Taq DNA Polymerase (2.5 U/reaction, Promega) and incubating at 70° C. for 30 minutes. The reaction was stopped by adding 1 μl of the reaction mixture to 10 μl Hi-Di Formamide mixed and 0.25 μl LIZ120 size standard. Hi-Di Formamide and LIZ120 size standard were purchased from Applied Biosystems. The partially extended quadruplex arrest product was between 61 or 62 bases long and the full-length extended product was 99 bases long. The products were separated and analyzed using capillary electrophoresis. Capillary electrophoresis was performed using an ABI PRISM 3100-Avant Genetic Analyzer. The assay was performed using compounds described above, and μM concentrations reported in Table 1 (Tables 1A-1F) are concentrations at which 50% of the DNA was arrested in the assay (i.e., the ratio of shorter partially extended DNA (arrested DNA) to full-length extended DNA is 1:1).
Stop Assays. Stop assays are high throughput, first-pass screens for detecting drugs that bind to and stabilize the target G-quadruplex. Generally, DNA template oligonucleotide is created, which contains the nucleotide sequence of the “target” quadruplex against which drug screening is desired. A fluorescently labeled primer DNA is then annealed to the 3′ end of the template DNA. A DNA polymerase such as Taq polymerase is then introduced to synthesize a complementary strand of DNA by extending from the fluorescently labeled primer. When the progress of the Taq polymerase is unhindered, it synthesizes a full-length copy of the template. […] If, however, the test drug selectively binds to and stabilizes the quadruplex, the progress of polymerase arrests only at the quadruplex, and a characteristic “Stop Product” is synthesized.
These products are visualized by capillary electrophoresis.

pIC50: −log10 of the molar value. Read-outs that look alike come from different tables or passages of the source.

With `CN1CCCC1CCNC(=O)c1cn2c3c(c(N4CCC(c5cnccn5)C4)c(F)cc3c1=O)Oc1ccc(C(N)=O)cc1-2` (stereo not drawn), the pIC50 in the assay with HCT-116 cells (Table 1A) is 5.44; with HeLa cells (Table 1A), 4.96.

For the compound `CN1CCCC1CCNC(=O)c1cn2c3c(c(N4CCC(c5cnccn5)C4)c(F)cc3c1=O)Oc1ccc(C#N)cc1-2` (stereo not drawn), the pIC50 with HCT-116 cells (Table 1A) is 6.40; in the assay with HeLa cells (Table 1A), 5.92.

Take `N#Cc1ccc2c(c1)-n1cc(C(=O)NCCN3CCCC3)c(=O)c3cc(F)c(N4CCC(c5cnccn5)C4)c(c31)O2` (stereo not drawn): the pIC50 in the assay on HCT-116 cells (Table 1A) was 7.51; in assay [1] (Table 1A, read-out: STOP IC50), 5.30; with HeLa cells (Table 1A), 6.68.

In the case of `N#Cc1ccc2c(c1)-n1cc(C(=O)NCCN3CCOCC3)c(=O)c3cc(F)c(N4CCC(N)C4)c(c31)O2` (stereo not drawn), the pIC50 with HCT-116 cells (Table 1A) is 6.40; in the assay on HeLa cells (Table 1A), 6.17.

With `CC(C)N1CCN(c2c(F)cc3c(=O)c(C(=O)NCCN4CCCC4)cn4c3c2Oc2ccc(C#N)cc2-4)CC1`, the pIC50 in the assay on HCT-116 cells (Table 1A) was 7.52; in assay [1] (Table 1A, read-out: STOP IC50) it was 5.00; with HeLa cells (Table 1A), 7.40.

In the case of `O=C(NCCN1CCCC1)c1cn2c3c(cc(SCCc4cnccn4)cc3c1=O)Oc1cc3ccccc3cc1-2`, the pIC50 with HCT-116 cells (Table 1B) was 5.55; in assay [1] (Table 1B, read-out: STOP IC50), 5.41; in the assay with HeLa cells (Table 1B), 6.55.

Take `CN1CCCC1CCNC(=O)c1cn2c3c(cc(SCCc4cnccn4)cc3c1=O)Oc1cc3ccccc3cc1-2` (stereo not drawn): the pIC50 in the assay with HCT-116 cells (Table 1B) is 5.00; in assay [1] (Table 1B, read-out: STOP IC50) it was 5.47; in the assay with HeLa cells (Table 1B), 5.74.

In the case of `CN1CCCC1CCNC(=O)c1cn2c3c(cc(SCc4ccccc4)cc3c1=O)Oc1cc3ccccc3cc1-2` (stereo not drawn), the pIC50 with HCT-116 cells (Table 1B) is 5.41; in assay [1] (Table 1B, read-out: STOP IC50) it was 4.85; in the assay on HeLa cells (Table 1B) it was 5.28.

In the case of `Cc1cc(CSc2cc3c4c(c2)c(=O)c(C(=O)NCCC2CCCN2C)cn4-c2cc4ccccc4cc2O3)no1` (stereo not drawn), the pIC50 in the assay with HCT-116 cells (Table 1B) is 5.54; in assay [1] (Table 1B, read-out: STOP IC50), 5.27; in the assay on HeLa cells (Table 1B), 5.64.

On to `CN1CCCC1CCNC(=O)c1cn2c3c(cc(SCc4ccccn4)cc3c1=O)Oc1cc3ccccc3cc1-2` (stereo not drawn), for which the pIC50 was 5.51 in the assay on HCT-116 cells (Table 1B); 5.42 in assay [1] (Table 1B, read-out: STOP IC50); 5.60 in the assay with HeLa cells (Table 1B).

For `CN1CCCC1CCNC(=O)c1cn2c3c(cc(SCCc4cnccn4)cc3c1=O)Oc1ccccc1-2` (stereo not drawn), the pIC50 is 5.42 with HCT-116 cells (Table 1B); 5.00 in assay [1] (Table 1B, read-out: STOP IC50); 5.52 with HeLa cells (Table 1B).

Turning to `CN1CCCC1CCNC(=O)c1cn2c3c(cc(SCc4ccncc4)cc3c1=O)Oc1cc3ccccc3cc1-2` (stereo not drawn), the pIC50 with HCT-116 cells (Table 1B) is 5.38; in assay [1] (Table 1B, read-out: STOP IC50), 5.54; with HeLa cells (Table 1B) it was 5.39.

Take `CC(=O)N1CCN(c2cc3c(=O)c(C(=O)NCCN4CCCC4)cn4c3c(c2F)Oc2cc(Cl)ccc2-4)CC1`: in assay [1] (Table 1C, read-out: STOP IC50), the pIC50 was 5.22.

As to `CC1CCN(C(=O)c2cn3c4c(c(NCCN5CCOCC5)c(F)cc4c2=O)Oc2ccccc2-3)CC1` [Example 55], the pIC50 in assay [1] (Table 1E, read-out: STOP Data) is less than 4.82.

For the compound `CN1CCCC1CCNC(=O)c1cn2c3c(c(N4CCC(c5cnccn5)C4)c(F)cc3c1=O)Oc1ccccc1-2` (stereo not drawn) [Example 81], the pIC50 in assay [1] (Table 1E, read-out: STOP Data) was 5.24.
